Among the data in ChEMBL document CHEMBL6121066, “Structure-Activity Relationship Studies of DNA Methyltransferase 1 Monovalent Degraders” (J Med Chem, 2025) are DC50, Emax and IC50 values, retold here.

The nature of test [1]: Induction of molecular glue effect mediated DNMT1 degradation in human HCT-116 cells assessed as reduction in DNMT1 protein level incubated for 24 hrs by Western blot analysis. The note with it: HCT-116, 24 h. The format is cell-based. For orientation: In western blotting, separated proteins are transferred to a membrane and probed.
For test [2], the system named is HCT-116. In words: Induction of molecular glue effect mediated DNMT1 degradation in human HCT-116 cells assessed as reduction in DNMT1 protein level by measuring maximal efficacy at 1 uM incubated for 24 hrs by Western blot analysis relative to control. In kind it is cell-based.
Test [3] has as its target DNA (cytosine-5)-methyltransferase 1 (Homo sapiens, UniProt P26358). Put plainly: Inhibition of human DNMT1 (350 to 1600 residues) extracted from Escherichia coli BL21 (DE3)-codon plus-RIL cells in presence of SAM and hemimethylated DNA.

Structures are written as SMILES.

By DC50 is commonly meant the concentration at which degradation of the target reaches its halfway point. As a reminder, the Emax is the greatest response seen or fitted, relative to the assay's reference. The IC50 is the concentration needed to halve the response being measured.

DNA (cytosine-5)-methyltransferase 1, sequence (P26358 whole entry, the tested form may be a part): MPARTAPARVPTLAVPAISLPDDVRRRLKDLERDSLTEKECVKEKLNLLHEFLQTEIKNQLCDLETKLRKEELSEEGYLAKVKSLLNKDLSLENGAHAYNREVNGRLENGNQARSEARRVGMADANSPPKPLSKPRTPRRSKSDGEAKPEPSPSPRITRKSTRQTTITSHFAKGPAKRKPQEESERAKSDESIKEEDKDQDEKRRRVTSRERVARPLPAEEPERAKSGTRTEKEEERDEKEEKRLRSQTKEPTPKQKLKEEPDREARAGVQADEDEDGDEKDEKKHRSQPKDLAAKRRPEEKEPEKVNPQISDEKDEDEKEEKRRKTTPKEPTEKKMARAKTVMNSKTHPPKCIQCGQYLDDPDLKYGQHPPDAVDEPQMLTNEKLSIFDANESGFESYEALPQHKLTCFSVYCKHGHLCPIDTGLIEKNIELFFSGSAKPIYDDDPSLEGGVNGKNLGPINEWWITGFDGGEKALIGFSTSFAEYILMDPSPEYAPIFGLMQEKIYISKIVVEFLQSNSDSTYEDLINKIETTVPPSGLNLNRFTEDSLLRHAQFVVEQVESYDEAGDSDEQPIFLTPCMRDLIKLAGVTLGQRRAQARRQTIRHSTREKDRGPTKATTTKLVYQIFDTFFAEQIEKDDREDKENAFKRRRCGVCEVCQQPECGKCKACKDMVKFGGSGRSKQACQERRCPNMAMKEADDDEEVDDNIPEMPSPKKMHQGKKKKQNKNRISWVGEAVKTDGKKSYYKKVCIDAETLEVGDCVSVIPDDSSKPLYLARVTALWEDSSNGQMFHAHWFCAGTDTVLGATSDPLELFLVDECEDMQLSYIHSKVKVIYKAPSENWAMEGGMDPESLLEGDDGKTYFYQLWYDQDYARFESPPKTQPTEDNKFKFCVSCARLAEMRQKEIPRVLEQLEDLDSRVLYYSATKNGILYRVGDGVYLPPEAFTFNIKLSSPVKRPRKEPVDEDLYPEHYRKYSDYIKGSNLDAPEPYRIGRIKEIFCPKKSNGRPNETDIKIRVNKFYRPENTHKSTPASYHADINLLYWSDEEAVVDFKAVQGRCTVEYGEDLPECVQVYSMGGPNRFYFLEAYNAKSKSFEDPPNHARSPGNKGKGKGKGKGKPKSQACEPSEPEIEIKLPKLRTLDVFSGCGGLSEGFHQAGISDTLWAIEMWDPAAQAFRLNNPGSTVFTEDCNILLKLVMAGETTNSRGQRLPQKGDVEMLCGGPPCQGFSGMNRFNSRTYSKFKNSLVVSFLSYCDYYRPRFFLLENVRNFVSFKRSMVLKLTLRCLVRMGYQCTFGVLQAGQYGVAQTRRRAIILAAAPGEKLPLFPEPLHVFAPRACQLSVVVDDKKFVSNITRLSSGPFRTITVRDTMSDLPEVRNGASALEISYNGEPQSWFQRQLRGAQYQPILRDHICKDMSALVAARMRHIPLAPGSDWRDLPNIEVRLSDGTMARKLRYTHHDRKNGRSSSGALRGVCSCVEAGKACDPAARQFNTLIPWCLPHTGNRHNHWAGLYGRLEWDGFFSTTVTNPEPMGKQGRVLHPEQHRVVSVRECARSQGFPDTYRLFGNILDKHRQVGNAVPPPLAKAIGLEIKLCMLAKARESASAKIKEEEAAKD

In the case of `CCc1c(C#N)c(SC(C(N)=O)c2ccccc2)nc(N2CCC(NC(C)=O)CC2)c1C#N` (stereo not drawn), the DC50 in test [1] was over 1000 nM. In addition, the Emax in test [2] amounted to 13%.
`CCc1c(C#N)c(SC(C(N)=O)c2ccccc2)nc(N2CCN(C(=O)c3cc[nH]n3)CC2)c1C#N` (stereo not drawn): the DC50 in test [1] was 144 nM. Moreover, the Emax in test [2] came to 89%.
The corresponding values for `CCc1c(C#N)c(SC(C(N)=O)c2ccccc2)nc(N2CCNC(=O)C2)c1C#N` (stereo not drawn) are 534 nM and 65%.
As for `CCc1c(C#N)c(SC(C(N)=O)c2ccccc2)nc(N2CCN(C)CC2)c1C#N` (stereo not drawn), in test [1], the DC50 was over 1000 nM. For the same compound, in test [2], the Emax was 46%.
The corresponding values for `CCCNC(=O)C(Sc1nc(N2CCC(N)CC2)c(C#N)c(CC)c1C#N)c1ccccc1` (stereo not drawn) are over 1000 nM and 13%.
The corresponding values for `CCc1c(C#N)c(SC(C(N)=O)c2ccccc2)nc(N2CCN(C(=O)c3ccc(Br)cc3)CC2)c1C#N` (stereo not drawn) are 563 nM and 79%.
With `CCc1c(C#N)c(SC(C(N)=O)c2ccccc2)nc(N2CCN(C(=O)C(C)(C)C)CC2)c1C#N` (stereo not drawn), the DC50 in test [1] came to 63 nM. Further, in test [2], the Emax was determined as 88%.
On to `CCc1c(C#N)c(SC(C(N)=O)c2ccccc2)nc(N2CCN(C(=O)c3cc4ccccc4s3)CC2)c1C#N` (stereo not drawn), for which, in test [1], the DC50 stood at 714 nM. Moreover, the Emax in test [2] was 74%.
The corresponding values for `CCc1c(C#N)c(SC(C(N)=O)c2ccccc2)nc(N2CCN(C(=O)C3CNC3)CC2)c1C#N` (stereo not drawn) are 820 nM and 56%.
On to `CCc1c(C#N)c(SC(C(N)=O)c2ccccc2)nc(N2CCS(=O)(=O)CC2)c1C#N` (stereo not drawn), for which the DC50 in test [1] was 362 nM. Further, the Emax in test [2] was 74%.
Turning to `CCc1c(C#N)c(SC(C(N)=O)c2ccccc2)nc(N2CCC(NC(=O)C34CC5CC(CC(C5)C3)C4)CC2)c1C#N` (stereo not drawn), the DC50 in test [1] came to 35 nM. The Emax in test [2] was 92%.
For the compound `CCc1c(C#N)c(SC(C(N)=O)c2ccccc2)nc(N2CCN(C(=O)C34CC5CC(CC(C5)C3)C4)CC2)c1C#N` (stereo not drawn), the DC50 in test [1] worked out at 409 nM. The maximal response (Emax) in test [2] worked out at 80%.
For `CCc1c(C#N)c(SC(C(=O)NC)c2ccccc2)nc(N2CCC(N)CC2)c1C#N` (stereo not drawn), the DC50 in test [1] amounted to 111 nM. The Emax in test [2] was determined as 82%.
With `CCC(=O)N1CCN(c2nc(SC(C(N)=O)c3ccccc3)c(C#N)c(CC)c2C#N)CC1` (stereo not drawn), in test [1], the DC50 came to 51 nM. Moreover, the Emax in test [2] came to 89%.
The corresponding values for `CCc1c(C#N)c(SC(C(N)=O)c2ccccc2)nc(N2CCNCC2)c1C#N` (stereo not drawn) are 184 nM and 78%.
With `CCc1c(C#N)c(SC(C(N)=O)c2ccccc2)nc(N2CCN(C)C(=O)C2)c1C#N` (stereo not drawn), in test [1], the DC50 was found to be 190 nM. For the same compound, the Emax in test [2] was determined as 87%.
As to `CCc1c(C#N)c(SC(C(N)=O)c2ccccc2)nc(N2CC3(CN(C(=O)C(C)(C)C)C3)C2)c1C#N` (stereo not drawn), in test [1], the DC50 was 946 nM. In test [2], the Emax stood at 43%.
In the case of `CCc1c(C#N)c(SC(C(N)=O)c2ccccc2)nc(N2CCNC(=O)CC2)c1C#N` (stereo not drawn), the DC50 in test [1] is 819 nM. Also, the Emax in test [2] came to 58%.
Regarding `CCc1c(C#N)c(SC(C(N)=O)c2ccccc2)nc(N2CCC(N)C2)c1C#N` (stereo not drawn), the DC50 in test [1] is 92 nM. For the same compound, in test [2], the Emax stood at 87%.
The corresponding values for `CCc1c(C#N)c(SC(C(N)=O)c2ccccc2)nc(N(C)CC(N)=O)c1C#N` (stereo not drawn) are 99 nM and 88%.
Take `CCc1c(C#N)c(SC(C(N)=O)c2ccccc2)nc(N2CCN(C(=O)CC(C)C)CC2)c1C#N` (stereo not drawn): the DC50 in test [1] is 65 nM. Also, in test [2], the Emax amounted to 93%.
Turning to `CCc1c(C#N)c(SC(C(N)=O)c2ccccc2)nc(N(C)CCN)c1C#N` (stereo not drawn), the DC50 in test [1] was found to be 78 nM. Also, the Emax in test [2] was 79%.
On to `CCc1c(C#N)c(NCC(N)=O)nc(SC(C(N)=O)c2ccccc2)c1C#N` (stereo not drawn), for which the DC50 in test [1] was over 1000 nM. In addition, the Emax in test [2] amounted to 32%. Further, the 50% inhibitory concentration (IC50) in test [3] is over 3000 nM.
As to `CCc1c(C#N)c(SC(C(N)=O)c2ccccc2)nc(N2CCCNCC2)c1C#N` (stereo not drawn), the DC50 in test [1] worked out at 119 nM. For the same compound, in test [2], the Emax was found to be 87%.
`CCc1c(C#N)c(SC(C(N)=O)c2ccccc2)nc(N2CCC(NC(=O)C(C)(C)C)CC2)c1C#N` (stereo not drawn): the DC50 in test [1] stood at 39 nM. In test [2], the Emax was determined as 90%.
Regarding `CCc1c(C#N)c(SC(C(N)=O)c2ccccc2)nc(N2CCN(C(=O)c3nccs3)CC2)c1C#N` (stereo not drawn), the DC50 in test [1] was 89 nM. The Emax in test [2] was determined as 90%.
In the case of `CCc1c(C#N)c(SC(C(N)=O)c2ccccc2)nc(N2CCN(C(=O)c3ccco3)CC2)c1C#N` (stereo not drawn), the DC50 in test [1] was 42 nM. Further, the Emax in test [2] came to 94%.
On to `CCc1c(C#N)c(SC(C(N)=O)c2ccccc2)nc(N2CCC(N(C)C)CC2)c1C#N` (stereo not drawn), for which the DC50 in test [1] is 35 nM. For the same compound, the Emax in test [2] worked out at 92%.
As to `CCc1c(C#N)c(S[C@@H](C(N)=O)c2ccccc2)nc(N(C)C)c1C#N`, the maximal effect (Emax) in test [2] was 89%.
`CCc1c(C#N)c(SC(C(N)=O)c2ccccc2)nc(N2CCC(=O)N(C)CC2)c1C#N` (stereo not drawn): the DC50 in test [1] was found to be 121 nM. The Emax in test [2] was determined as 86%.
As to `CCc1c(C#N)c(SC(C(N)=O)c2ccccc2)nc(N(C)CCNC(C)=O)c1C#N` (stereo not drawn), the DC50 in test [1] worked out at 753 nM. Also, the Emax in test [2] turned out to be 56%.
The corresponding values for `CCc1c(C#N)c(SC(C(N)=O)c2ccccc2)nc(N2CCN(C(C)=O)CC2)c1C#N` (stereo not drawn) are 107 nM and 87%.
Consider `CCc1c(C#N)c(SC(C(N)=O)c2ccccc2)nc(N2CCN(C(=O)C3CCCCCC3)CC2)c1C#N` (stereo not drawn), for which the DC50 in test [1] is 175 nM. For the same compound, in test [2], the Emax was found to be 87%.
Consider `CCc1c(C#N)c(SC(C(N)=O)c2ccccc2)nc(N2CCN(C(=O)c3ccc(C(C)C)s3)CC2)c1C#N` (stereo not drawn), for which the half-maximal degradation concentration (DC50) in test [1] was 405 nM. Besides, the Emax in test [2] was determined as 71%.
